# From US20220096450A1, “Compounds and Methods for Treating or Preventing Heart Failure” (DREXEL UNIVERSITY, priority 2019, published 2022)
# Where two headings read alike, the source gives them in different places.
# Biological target: SQOR (Homo sapiens, UniProt Q9Y6N5)
# Test: DCIP endpoint assay of SQOR activity
# Format: biochemical
# Experimental: The assay is based on the ability of reduced CoQ1, which is produced in the SQOR reaction, to nonenzymically reduce 2,6-dichloroindiphenol (DCIP) (Δεox-red=20 mM−1 cm−1 at 600 nm). Reaction mixtures containing SQOR, substrates (H2S, sulfite, CoQ1) and various concentrations of an inhibitor are incubated in 96-well plates for 60 s. The reactions are quenched by addition of formaldehyde and N-ethylmaleimide to denature SQOR and consume unreacted H2S, respectively, and are then incubated for 10 min prior to addition of DCIP. The absorbance at 600 nm is read 30 s after DCIP addition by using a BioTek Synergy 2 plate reader.
# [1] = Table 1, SAR of Set A/A′ and Set B, read-out: IC50
# [2] = Table 2, SAR of Set C, read-out: IC50
# Chain of SQOR (Q9Y6N5 whole entry): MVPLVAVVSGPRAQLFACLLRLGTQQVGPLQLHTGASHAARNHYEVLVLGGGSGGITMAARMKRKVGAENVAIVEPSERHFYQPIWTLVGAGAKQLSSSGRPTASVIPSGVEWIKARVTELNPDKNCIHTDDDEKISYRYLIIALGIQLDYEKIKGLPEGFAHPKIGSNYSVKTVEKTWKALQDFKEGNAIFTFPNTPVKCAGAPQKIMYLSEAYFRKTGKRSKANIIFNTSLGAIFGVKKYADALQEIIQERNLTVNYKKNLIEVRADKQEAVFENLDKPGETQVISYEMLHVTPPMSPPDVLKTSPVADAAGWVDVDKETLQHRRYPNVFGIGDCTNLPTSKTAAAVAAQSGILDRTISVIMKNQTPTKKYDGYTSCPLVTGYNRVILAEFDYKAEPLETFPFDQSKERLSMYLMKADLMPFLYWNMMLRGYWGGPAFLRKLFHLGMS
Structure (SMILES),"IC50 (Table 3, read-out: IC50) [µM]",IC50 [1] [µM],other results
Cc1cccnc1-c1cc(-c2ccc(F)cc2)c(C#N)c(OCCN2CCN(C(=O)OC(C)C)CC2)n1 [Isopropyl 4-(2-(3-cyano-4-(4-fluorophenyl)-6-(3-methylpyridin-2-yl)pyridin-2-yloxy)ethyl)piperazine-1-carboxylate],0.12,–,–
CN(C)CCCOc1nc(-c2ccccn2)cc(-c2ccc(F)cc2)c1C#N [2-(3-(Dimethylamino)propoxy)-4-(4-fluorophenyl)-6-(pyridin-2-yl)pyridine-3-carbonitrile],2.2,–,–
"CCOC(=O)COc1nc(-c2ccccc2)cc(-c2ccccc2)c1C#N [Compound 11, ethyl 2-((3-cyano-4,6-diphenylpyridin-2-yl)oxy)acetate]",–,0.03,–
"COc1nc2c(c(-c3ccc(C(F)(F)F)cc3)c1C#N)Cc1ccccc1-2 [Compound 8, 2-methoxy-4-(4-(trifluoromethyl)phenyl)-5H-indeno[1,2-b]pyridine-3-carbonitrile]",–,1.1,–
"COc1nc2c(c(-c3ccccc3Cl)c1C#N)Cc1ccccc1-2 [Compound 6, 4-(2-chlorophenyl)-2-methoxy-5H-indeno[1,2-b]pyridine-3-carbonitrile]",–,0.34,–
COc1nc(-c2ccccc2[N+](=O)[O-])cc(-c2ccc(F)cc2)c1C#N [4-(4-Fluorophenyl)-2-methoxy-6-(2-nitrophenyl)pyridine-3-carbonitrile],0.007,–,–
"Cc1cc([N+](=O)[O-])c(Sc2ccc(Cl)cc2)cc1C1SCCS1 [Compound 32, 2-(5-((4-chlorophenyl)thio)-2-methyl-4-nitrophenyl)-1,3-dithiolane]",–,–,IC50 [2]: 0.024 µM
Cc1cccnc1-c1cc(-c2ccc(F)cc2)c(C#N)c(OCCN2CCOCC2)n1 [2-(2-Morpholinoethoxy)-4-(4-fluorophenyl)-6-(3-methylpyridin-2-yl)pyridine-3-carbonitrile],0.27,–,–
Cc1cccnc1-c1cc(-c2ccc(F)cc2)c(C#N)c(OCc2ccncc2)n1 [2-((Pyridin-4-yl)methoxy)-4-(4-fluorophenyl)-6-(3-methylpyridin-2-yl)pyridine-3-carbonitrile],0.12,–,–
"N#Cc1c(-c2ccccc2)cc(-c2ccc(O)cc2)nc1N [Compound 17, 2-amino-6-(4-hydroxyphenyl)-4-phenylnicotinonitrile]",–,12,–
Cc1cccnc1-c1cc(-c2ccc(F)cc2)c(C#N)c(OCc2cccnc2)n1 [2-((Pyridin-3-yl)methoxy)-4-(4-fluorophenyl)-6-(3-methylpyridin-2-yl)pyridine-3-carbonitrile],0.04,–,–
Cc1cccnc1-c1cc(-c2ccc(F)cc2)c(C#N)c(OCCN2CCN(C(=O)OC(C)(C)C)CC2)n1 [tert-Butyl 4-(2-(3-cyano-4-(4-fluorophenyl)-6-(3-methylpyridin-2-yl)pyridin-2-yloxy)ethyl)piperazine-1-carboxylate],0.043,–,–
Cc1cccnc1-c1cc(-c2ccc(F)cc2)c(C#N)c(OCc2ccccn2)n1 [2-((Pyridin-2-yl)methoxy)-4-(4-fluorophenyl)-6-(3-methylpyridin-2-yl)pyridine-3-carbonitrile],0.032,–,–
"Cc1ccc(Sc2cc(N3CCOCC3)c(C)cc2[N+](=O)[O-])cc1 [Compound 3, 4-(2-methyl-4-nitro-5-(p-tolylthio)phenyl)morpholine]",–,–,IC50 [2]: 0.008 µM
"CCOc1nc(-c2ccccc2)nc(-c2ccccc2)c1C#N [4-Ethoxy-2,6-diphenylpyrimidine-5-carbonitrile]",0.12,–,–
"Cc1ccc(-c2cc(-c3ccccc3)c(C#N)c(N)n2)cc1 [Compound 16, 2-amino-4-phenyl-6-(p-tolyl)nicotinonitrile]",–,11,–
N#Cc1c(-c2ccc(F)cc2)cc(-c2ccccn2)nc1OC[C@H]1CCC(=O)N1 [2-((R)-5-(Methoxy)pyrrolidin-2-one)-4-(4-fluorophenyl)-6-(pyridin-2-yl)pyridine-3-carbonitrile],2.7,–,–
"CCOc1nc2c(c(-c3ccc(F)cc3)c1C#N)Cc1ccccc1-2 [Compound 1, 2-ethoxy-4-(4-fluorophenyl)-5H-indeno[1,2-b]pyridine-3-carbonitrile]",–,–,IC50 (read-out: IC50 against SQOR): 0.0094 µM
CCOC(=O)N1CCN(CCOc2nc(-c3ncccc3C)cc(-c3ccc(F)cc3)c2C#N)CC1 [Ethyl 4-(2-(3-cyano-4-(4-fluorophenyl)-6-(3-methylpyridin-2-yl)pyridin-2-yloxy)ethyl)piperazine-1-carboxylate],0.23,–,–
N#Cc1c(-c2ccc(F)cc2)cc(-c2ccccn2)nc1OC[C@@H]1CCC(=O)N1 [2-((S)-5-(Methoxy)pyrrolidin-2-one)-4-(4-fluorophenyl)-6-(pyridin-2-yl)pyridine-3-carbonitrile],39,–,–
"COc1nc2c(c(-c3cc(Cl)ccc3F)c1C#N)Cc1ccccc1-2 [Compound 9, 4-(5-chloro-2-fluorophenyl)-2-methoxy-5H-indeno[1,2-b]pyridine-3-carbonitrile]",–,3.5,–
N#CCOc1nc(-c2ccccn2)cc(-c2ccc(F)cc2)c1C#N [2-(Cyanomethoxy)-4-(4-fluorophenyl)-6-(pyridin-2-yl)pyridine-3-carbonitrile],0.025,–,–
"CCOc1nc(-c2ccccc2)cc(-c2ccccc2)c1C#N [Compound 13, 2-ethoxy-4,6-diphenylnicotinonitrile]",–,0.019,–
"Cc1ccc(-c2cc(-c3ccc4c(c3)OCO4)c(C#N)c(N)n2)cc1C [Compound 18, 2-amino-4-(benzo[d][1,3]dioxol-5-yl)-6-(3,4-dimethylphenyl)nicotinonitrile]",–,14,–

# Continued, in another order:
"IC50 (Table 3, read-out: IC50) [µM]",IC50 [1] [µM],Structure (SMILES),other results
10,–,"Cc1cccnc1-c1cc(-c2ccc(F)cc2)c(C#N)c(=O)n1Cc1cccnc1 [4-(4-fluorophenyl)-1,2-dihydro-6-(3-methylpyridin-2-yl)-2-oxo-1-((pyridin-3-yl)methyl)pyridine-3-carbonitrile]",–
0.67,–,COc1ccc(-c2cc(-c3ncccc3C)nc(OC)c2C#N)cc1 [2-Methoxy-4-(4-methoxyphenyl)-6-(3-methylpyridin-2-yl)pyridine-3-carbonitrile],–
–,0.46,"O=[N+]([O-])c1cc(Cl)c(-n2cccc2)cc1N1CCCC1 [Compound 20, 1-(2-chloro-4-nitro-5-(pyrrolidin-1-yl)phenyl)-1H-pyrrole]",–
–,0.025,"O=[N+]([O-])c1cc(Cl)c(-n2cccc2)cc1N1CCCCC1 [Compound 2, 1-(4-chloro-2-nitro-5-(1H-pyrrol-1-yl)phenyl)piperidine]",–
0.0072,–,C=CCOc1nc(-c2ccccn2)cc(-c2ccc(F)cc2)c1C#N [2-(Allyloxy)-4-(4-fluorophenyl)-6-(pyridin-2-yl)pyridine-3-carbonitrile],–
–,6.1,"COc1cccc(-c2c(C#N)c(OC)nc3c2Cc2ccccc2-3)c1 [Compound 10, 2-methoxy-4-(3-methoxyphenyl)-5H-indeno[1,2-b]pyridine-3-carbonitrile]",–
1.9,–,COc1nc(-c2ccccc2)cc(-c2cccc(O)c2)c1C#N [4-(3-Hydroxyphenyl)-2-methoxy-6-phenylpyridine-3-carbonitrile],–
14,–,"Cc1cccnc1-c1cc(-c2ccc(F)cc2)c(C#N)c(=O)n1CCN1CCOCC1 [4-(4-fluorophenyl)-1,2-dihydro-6-(3-methylpyridin-2-yl)-1-(2-morpholinoethyl)-2-oxopyridine-3-carbonitrile]",–
0.092,–,COc1nc(-c2ccccc2)cc(-c2ccc(N)cc2)c1C#N [4-(4-Aminophenyl)-2-methoxy-6-phenylpyridine-3-carbonitrile],–
–,1.1,"Cc1ccc(C)c(-c2cc(-c3ccc4c(c3)OCO4)c(C#N)c(N)n2)c1 [Compound 15, 2-amino-4-(benzo[d][1,3]dioxol-5-yl)-6-(2,5-dimethylphenyl)nicotinonitrile]",–
2.7,–,Cc1cccnc1-c1cc(-c2ccc(F)cc2)c(C#N)c(OCCCN(C)C)n1 [2-(3-(Dimethylamino)propoxy)-4-(4-fluorophenyl)-6-(3-methylpyridin-2-yl)pyridine-3-carbonitrile],–
1,–,COc1nc(-c2ccc(O)cc2)cc(-c2ccc(F)cc2)c1C#N [4-(4-Fluorophenyl)-6-(4-hydroxyphenyl)-2-methoxypyridine-3-carbonitrile],–
0.23,–,COc1nc(-c2cccc(O)c2)cc(-c2ccc(F)cc2)c1C#N [4-(4-fluorophenyl)-6-(3-hydroxyphenyl)-2-methoxypyridine-3-carbonitrile],–
0.44,–,"COc1nc(-c2ccccc2)cc(-c2ccccc2)c1C [2-Methoxy-3-methyl-4,6-diphenylpyridine]",–
–,0.89,"CCOc1nc(-c2ccccc2)cc(-c2ccc3c(c2)OCO3)c1C#N [Compound 12, 4-(benzo[d][1,3]dioxol-5-yl)-2-ethoxy-6-phenylnicotinonitrile]",–
–,0.6,"N#Cc1c(-c2ccccc2)cc(-c2ccc(F)cc2)nc1N [Compound 14, 2-amino-6-(4-fluorophenyl)-4-phenylnicotinonitrile]",–
1.9,–,CC(=O)NCCOc1nc(-c2ccccn2)cc(-c2ccc(F)cc2)c1C#N [N-(2-(3-Cyano-4-(4-fluorophenyl)-6-(pyridin-2-yl)pyridin-2-yloxy)ethyl)acetamide],–
0.68,–,COc1nc(-c2ccccn2)cc(-c2ccco2)c1C#N [4-(Furan-2-yl)-2-methoxy-6-(pyridin-2-yl)pyridine-3-carbonitrile],–
–,0.88,"COc1nc2c(c(-c3ccc(SC)cc3)c1C#N)Cc1ccccc1-2 [Compound 7, 2-methoxy-4-(4-(methylthio)phenyl)-5H-indeno[1,2-b]pyridine-3-carbonitrile]",–
–,0.26,"CCOc1nc2c(c(-c3ccc(OC)cc3)c1C#N)Cc1ccccc1-2 [Compound 5, 2-ethoxy-4-(4-methoxyphenyl)-5H-indeno[1,2-b]pyridine-3-carbonitrile]",–
0.48,–,COc1nc(-c2ccccc2)cc(-c2ccc(O)cc2)c1C#N [4-(4-Hydroxyphenyl)-2-methoxy-6-phenylpyridine-3-carbonitrile],–
